Data as given in ChEMBL document CHEMBL4308841, “Synthesis, in vitro antiproliferative activity, and kinase inhibitory effects of pyrazole-containing diarylureas and diarylamides” (Eur J Med Chem, 2018).

Legend:
[1] = test system: K562; assay: Growth inhibition of human K562 cells incubated for 48 hrs by sulforhodamine B assay; type: functional, cell-based; conditions: K562, 48 h
[2] = test system: NCI-H522; assay: Growth inhibition of human NCI-H522 cells incubated for 48 hrs by sulforhodamine B assay; type: functional, cell-based; conditions: NCI-H522, 48 h
[3] = test system: COLO 205; assay: Growth inhibition of human COLO205 cells incubated for 48 hrs by sulforhodamine B assay; type: functional, cell-based; conditions: COLO 205, 48 h
[4] = test system: SF-268; assay: Growth inhibition of human SF268 cells incubated for 48 hrs by sulforhodamine B assay; type: functional, cell-based; conditions: SF-268, 48 h
[5] = test system: UACC-62; assay: Growth inhibition of human UACC62 cells incubated for 48 hrs by sulforhodamine B assay; type: functional, cell-based; conditions: UACC-62, 48 h
[6] = test system: OVCAR-4; assay: Growth inhibition of human OVCAR4 cells incubated for 48 hrs by sulforhodamine B assay; type: functional, cell-based; conditions: OVCAR-4, 48 h
[7] = test system: OVCAR-5; assay: Growth inhibition of human OVCAR5 cells incubated for 48 hrs by sulforhodamine B assay; type: functional, cell-based; conditions: OVCAR-5, 48 h
[8] = test system: CCRF-CEM; assay: Growth inhibition of human CCRF-CEM cells assessed as cell growth at 0.01 uM incubated for 48 hrs by sulforhodamine B assay relative to control; type: functional; conditions: read-out: Activity
[9] = test system: M14; assay: Growth inhibition of human M14 cells assessed as cell growth at 0.01 uM incubated for 48 hrs by sulforhodamine B assay relative to control; type: functional; conditions: M14, 48 h, read-out: Activity
[10] = test system: UACC-62; assay: Growth inhibition of human UACC62 cells assessed as cell growth at 0.01 uM incubated for 48 hrs by sulforhodamine B assay relative to control; type: functional; conditions: UACC-62, 48 h, read-out: Activity
[11] = test system: PC-3; assay: Growth inhibition of human PC3 cells assessed as cell growth at 0.01 uM incubated for 48 hrs by sulforhodamine B assay relative to control; type: functional; conditions: PC-3, 48 h, read-out: Activity
[12] = test system: BT-549; assay: Growth inhibition of human BT549 cells assessed as cell growth at 0.01 uM incubated for 48 hrs by sulforhodamine B assay relative to control; type: functional; conditions: BT-549, 48 h, read-out: Activity
[13] = test system: RPMI-8226; assay: Growth inhibition of human RPMI8226 cells assessed as cell growth at 0.1 uM incubated for 48 hrs by sulforhodamine B assay relative to control; type: functional; conditions: RPMI-8226, 48 h, read-out: Activity
[14] = test system: U-251; assay: Growth inhibition of human U251 cells assessed as cell growth at 0.1 uM incubated for 48 hrs by sulforhodamine B assay relative to control; type: functional; conditions: U-251, 48 h, read-out: Activity
[15] = test system: Malme-3M; assay: Growth inhibition of human MALME-3M cells assessed as cell growth at 0.1 uM incubated for 48 hrs by sulforhodamine B assay relative to control; type: functional; conditions: read-out: Activity
[16] = test system: SK-MEL-2; assay: Growth inhibition of human SK-MEL-2 cells assessed as cell growth at 0.1 uM incubated for 48 hrs by sulforhodamine B assay relative to control; type: functional; conditions: SK-MEL-2, 48 h, read-out: Activity
[17] = test system: OVCAR-4; assay: Growth inhibition of human OVCAR4 cells assessed as cell growth at 0.1 uM incubated for 48 hrs by sulforhodamine B assay relative to control; type: functional; conditions: OVCAR-4, 48 h, read-out: Activity
[18] = test system: KM12; assay: Growth inhibition of human KM12 cells assessed as cell growth at 1 uM incubated for 48 hrs by sulforhodamine B assay relative to control; type: functional; conditions: KM12, 48 h, read-out: Activity
[19] = test system: IGROV-1; assay: Growth inhibition of human IGROV1 cells assessed as cell growth at 1 uM incubated for 48 hrs by sulforhodamine B assay relative to control; type: functional; conditions: IGROV-1, 48 h, read-out: Activity
[20] = test system: OVCAR-8; assay: Growth inhibition of human OVCAR8 cells assessed as cell growth at 1 uM incubated for 48 hrs by sulforhodamine B assay relative to control; type: functional; conditions: OVCAR-8, 48 h, read-out: Activity
[21] = test system: CCRF-CEM; assay: Growth inhibition of human CCRF-CEM cells assessed as cell growth at 100 uM incubated for 48 hrs by sulforhodamine B assay relative to control; type: functional; conditions: read-out: Activity
[22] = test system: HCT-116; assay: Growth inhibition of human HCT116 cells assessed as cell growth at 100 uM incubated for 48 hrs by sulforhodamine B assay relative to control; type: functional; conditions: HCT-116, 48 h, read-out: Activity
[23] = test system: SF-268; assay: Growth inhibition of human SF268 cells assessed as cell growth at 100 uM incubated for 48 hrs by sulforhodamine B assay relative to control; type: functional; conditions: SF-268, 48 h, read-out: Activity
[24] = test system: SNB-19; assay: Growth inhibition of human SNB19 cells assessed as cell growth at 100 uM incubated for 48 hrs by sulforhodamine B assay relative to control; type: functional; conditions: SNB-19, 48 h, read-out: Activity
[25] = test system: U-251; assay: Growth inhibition of human U251 cells assessed as cell growth at 100 uM incubated for 48 hrs by sulforhodamine B assay relative to control; type: functional; conditions: U-251, 48 h, read-out: Activity
[26] = test system: SK-MEL-28; assay: Growth inhibition of human SK-MEL-28 cells assessed as cell growth at 100 uM incubated for 48 hrs by sulforhodamine B assay relative to control; type: functional; conditions: SK-MEL-28, 48 h, read-out: Activity
[27] = test system: UACC-62; assay: Growth inhibition of human UACC62 cells assessed as cell growth at 100 uM incubated for 48 hrs by sulforhodamine B assay relative to control; type: functional; conditions: UACC-62, 48 h, read-out: Activity
[28] = test system: OVCAR-5; assay: Growth inhibition of human OVCAR5 cells assessed as cell growth at 100 uM incubated for 48 hrs by sulforhodamine B assay relative to control; type: functional; conditions: OVCAR-5, 48 h, read-out: Activity
[29] = read-out: pLC50 (the source's name) (converted)
[30] = read-out: LC50 (the source's name)

COc1cc(Cl)cc(-c2nn(-c3cccc(NC(=O)Nc4cc(C(F)(F)F)cc(C(F)(F)F)c4)c3)cc2-c2ccncc2)c1
IC50 [1]: 350 nM | GI50 ([1]; read-out: GI50): 351 nM | LC50 ([1]; read-out: LC50): > 100000 nM | TGI ([1]; read-out: TGI): 5840 nM | GI50 ([1]; read-out: pGI50 (converted)): 355 nM | LC50 ([1]; read-out: pLC50 (converted)): > 100000 nM | TGI ([1]; read-out: pTGI (converted)): 5890 nM | IC50 [2]: 350 nM | GI50 ([2]; read-out: GI50): 353 nM | TGI ([2]; read-out: TGI): 1760 nM | GI50 ([2]; read-out: pGI50 (converted)): 355 nM | CC50 [2, 29]: 8910 nM | TGI ([2]; read-out: pTGI (converted)): 1780 nM | IC50 [3]: 450 nM | GI50 ([3]; read-out: GI50): 448 nM | TGI ([3]; read-out: TGI): 1880 nM | GI50 ([3]; read-out: pGI50 (converted)): 447 nM | CC50 [3, 29]: 6920 nM | TGI ([3]; read-out: pTGI (converted)): 1860 nM | IC50 [4]: 620 nM | GI50 ([4]; read-out: GI50): 618 nM | CC50 [4, 30]: 30.7 nM | TGI ([4]; read-out: TGI): 3250 nM | GI50 ([4]; read-out: pGI50 (converted)): 617 nM | CC50 [4, 29]: 30900 nM | TGI ([4]; read-out: pTGI (converted)): 3240 nM | IC50 [5]: 360 nM | GI50 ([5]; read-out: GI50): 357 nM | CC50 [5, 30]: 53.2 nM | TGI ([5]; read-out: TGI): 1500 nM | GI50 ([5]; read-out: pGI50 (converted)): 355 nM | CC50 [5, 29]: 5370 nM | TGI ([5]; read-out: pTGI (converted)): 1510 nM | IC50 [6]: 500 nM | GI50 ([6]; read-out: GI50): 501 nM | CC50 [6, 30]: > 100000 nM | TGI ([6]; read-out: TGI): 21400 nM | GI50 ([6]; read-out: pGI50 (converted)): 501 nM | CC50 [6, 29]: > 100000 nM | TGI ([6]; read-out: pTGI (converted)): 26900 nM | IC50 [7]: 1460 nM | GI50 ([7]; read-out: GI50): 1460 nM | CC50 [7, 30]: > 100000 nM | TGI ([7]; read-out: TGI): 12800 nM | GI50 ([7]; read-out: pGI50 (converted)): 1450 nM | CC50 [7, 29]: > 100000 nM | TGI ([7]; read-out: pTGI (converted)): 12900 nM | growth at 0.01 µM [8]: 87% | growth at 0.01 µM [9]: 96% | growth at 0.01 µM [10]: 96% | growth at 0.01 µM [11]: 101% | growth at 0.01 µM [12]: 94% | growth at 0.1 µM [13]: 87% | growth at 0.1 µM [14]: 91% | growth at 0.1 µM [15]: 87% | growth at 0.1 µM [16]: 95% | growth at 0.1 µM [17]: 97% | growth at 1 µM [18]: 31% | growth at 1 µM [19]: 33% | growth at 1 µM [20]: 12% | growth at 100 µM [21]: -29% | growth at 100 µM [22]: -88% | growth at 100 µM [23]: -88% | growth at 100 µM [24]: -42% | growth at 100 µM [25]: -92% | growth at 100 µM [26]: -58% | growth at 100 µM [27]: -71% | growth at 100 µM [28]: -80%
